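These data come from cells grown in 96-well plates and exposed to compound for 48 hours at five concentrations. At the TGI there is no net growth.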 Where a SMILES comes first, the peptide text is derived from it. [ ]: non-standard residue; d: D form. The star is where a group is joined. mTyr = N[CH](Cc1cccc(O)c1)C(=O)O; Cbz = O=C(OCc1ccccc1)*; OBn = c1ccc(CO*)cc1
How the values were obtained:
Assay in all cases: NCI-60 cell line screen, 48 h
NCI-H460 lung = test system: NCI-H460 lung
SF-539 CNS = test system: SF-539 CNS
A498 renal = test system: A498 renal
M14 melanoma = test system: M14 melanoma
NCI-H522 lung = test system: NCI-H522 lung
K-562 leukemia = test system: K-562 leukemia
SK-MEL-2 melanoma = test system: SK-MEL-2 melanoma
SK-MEL-5 melanoma = test system: SK-MEL-5 melanoma
UACC-257 melanoma = test system: UACC-257 melanoma
HL-60(TB) leukemia = test system: HL-60(TB) leukemia

SMILES	TGI (NCI-H460 lung) [µM]	TGI (SF-539 CNS) [µM]	TGI (A498 renal) [µM]	TGI (M14 melanoma) [µM]	TGI (NCI-H522 lung) [µM]	TGI (K-562 leukemia) [µM]	TGI (SK-MEL-2 melanoma) [µM]	TGI (SK-MEL-5 melanoma) [µM]	TGI (UACC-257 melanoma) [µM]	TGI (HL-60(TB) leukemia) [µM]
Brc1ccc(-c2cn3ccncc3n2)cc1	> 100	> 100	> 100	> 100	> 100	> 100	> 100	> 100	85.6	–
CC(C)C1=CC23CCC4C(C)(C(=O)O)CCCC4(C)C2CC1C1C(=O)N(c2ccc(C(=O)O)cc2)C(=O)C13 (configuration not stated)	> 100	> 100	–	> 100	> 100	> 100	> 100	> 100	> 100	> 100
CC(C)(C)c1cc(C2COC(c3cc(C(C)(C)C)c(O)c(C(C)(C)C)c3)CO2)cc(C(C)(C)C)c1O (configuration not stated)	–	> 100	> 100	> 100	> 100	> 100	> 100	> 100	> 100	–
CCOC(=O)[C@H](Cc1ccc(O)cc1)N=C1[C@H]2CCC[C@]1(O)[C@@](C)([N+](=O)[O-])C2	> 100	> 100	> 100	> 100	> 100	> 100	–	> 100	> 100	> 100
C=CCOC(=O)C1C2OC3(C(C(=O)OC)=C2C(=O)OC)c2ccccc2CCC13 (configuration not stated)	> 10	> 10	> 10	> 10	–	> 10	> 10	> 10	> 10	> 10
COc1ccc2c(c1)CCN1CCc3cc(OC)c(OC)cc3CC21 (configuration not stated)	–	> 100	> 100	> 100	> 10	> 100	–	–	> 100	–
COC(=O)C(Cc1cccc(O)c1)NC(=O)C(CC(=O)OCc1ccccc1)NC(=O)OCc1ccccc1 (configuration not stated) (Cbz-Asp(OBn)-[mTyr]-OMe; configuration not given here)	35.6	–	> 100	> 100	–	> 100	> 100	> 100	> 100	> 100
CN(C)CCCN1c2ccccc2CCc2ccc([N+](=O)[O-])cc21	42.3	–	40.3	30.6	36.7	> 100	43.9	31.4	31.8	75.6
CNc1ccc(N)cc1C(=O)N1CCC[C@H]1CO	–	> 100	> 100	> 100	> 100	–	> 100	> 100	> 100	> 100
Cc1ccc(/C(O)=C/C(=O)C(=O)NN=C(c2ccccc2)c2ccccc2)cc1	> 100	> 100	> 100	> 100	–	> 100	> 100	> 100	> 100	> 100
Cc1ccc(N=Nc2c(O)c(C(=O)Nc3ccccc3)cc3ccccc23)c([N+](=O)[O-])c1	–	–	> 100	> 100	> 100	> 100	> 100	> 100	> 100	–
CC(C)(CC(O)C#N)/[N+]([O-])=[N+](\[O-])C(C)(C)CC(O)C#N (configuration not stated)	> 100	–	> 100	36.9	35.4	42.5	> 100	> 100	58.1	–
COc1cc([C@@H]2c3cc(O)c(OC)cc3C=C(C(N)=O)[C@H]2C(N)=O)ccc1O	> 100	> 100	> 100	> 100	> 100	> 100	–	> 100	> 100	> 100
COC(=O)c1cnn2c1n[n+]([O-])c1ccccc12	–	–	> 100	> 100	> 100	> 100	> 100	> 100	> 100	> 100
CC(NC(C)(C)C)C(=O)c1cccc(Cl)c1 (configuration not stated)	> 100	> 100	> 100	> 100	> 100	> 100	> 100	> 100	> 100	–
COc1cccc(NC(=O)C(C#N)=C(SC)SC)c1	> 100	> 100	> 100	> 100	> 100	> 100	> 100	> 100	> 100	–
COc1ccc2oc(=N)c(C(=O)Nc3ccccn3)cc2c1	> 100	–	> 100	> 100	–	> 100	> 100	> 100	> 100	> 100
